One data set has as its system CEM-SS cells. In words: CEM-SS cell growth (3H-TdR uptake). To be noted: Homo sapiens, 48 hours, N = 3, read-out: Inhibitory Concentration50 CEM-SS Cell Growth. It counts as cell-based. The text has this: (§1) Next investigated were the correlations of EL analog structure with anti-HIV-l and anti-cell growth. The experimental method used six serial two-fold dilutions of EL that spanned concentrations above and below a concentration that inhibits HIV-1 plaque count, cell growth (^3 H-TdR uptake into cell DNA) or in vitro PKC activity by 50% (inhibitory concentration50 =IC50) compared to an appropriate mock treated control. Table 7 summarizes data on IC50 of phosphorus and non-phosphorus compounds for HIV-1 plaque formation and cell growth.
formation are x ± one SD., N = 4. CEMSS cell growth is measured in
suspension cultures by treating the cells with compound for 48 hours at
37° C. and then adding 1 μCi of ^3 HTdR (S.A. = 20 Ci/mmole
for 8 hours at 37° C. to measure DNA synthesis. IC50 values
for CEMSS growth are x of a representative experiment, N = 3.

For data set [1], the system named is HIV-1. In words: HIV-1 plaque assay, inhibitor added 30 minutes before infection. It counts as cell-based, human immunodeficiency virus type 1 (HIV-1). An excerpt: (§2) Dextran sulfate was used as a positive control. […] Plaques were counted at five days after infection.
(§3) By way of further background, in our assay HIV-1 syncytial plaques are seen as large, multicellular foci (10 to 25 nuclei/syncytium) that appear either brown and granular or clear. Since the number of HIV-1 syncytial plaques correlates with reverse transcriptase (RT) and p24 core antigen activity in the HIV-1 infected cell overlay fluids, the syncytial plaque assay can be used to quantify the amount of infectious virus. Reverse transcriptase activity was assayed according to a described procedure (B. J. Poeisz et al., Proc. Natl. Acad. Sci. (U.S.A.) […], 7415 (1980)). The activity of p24 core antigen induced by HIV-1 infection of CEM-SS cells was measured spectrophotometrically using the commercial Abbott EIA.
(§4) Compound E inhibited HIV-1 plaque count 43%, 83%, and 91% at concentrations of 0.2, 0.4, and 2.0 μM, respectively, compared to untreated controls. […] In other experiments addition of 0.2, 0.4 and 2.0 μM Compound E starting sixty minutes after HIV-1 infection inhibited HIV-1 plaque formation 28%, 59% and 97% respectively, compared to untreated controls.

Another data set concerns reverse transcriptase. In words: Reverse transcriptase activity in HIV-1 infected CEM-SS cells. It counts as cell-based, human immunodeficiency virus type 1 (HIV-1). To be noted: for reverse transcriptase activity: in words; for activity at 0.2 µM / activity at 0.4 µM / activity at 2 µM: Human immunodeficiency virus 1, CEM-SS, read-out: RT Activity, % of Control. As for the experimental part:
as §3
(§5) In brief, CEM-SS cells were infected with HIV-1. At various times after infection (3, 6, 8, 10, 13 days) the overlay fluids were replaced with fresh medium. Overlay fluids replaced on days 8, 10 and 13 were saved at -80° C. to measure HIV-1 plaque forming units according to our described protocol above and RT activity (described by Poiesz et al., Proc. Natl. Acad. Sci. U.S.A. 77, 7415 (1980). Results are given in Table 8 below.

The subject of data set [2] is HIV-1. The experiment in a line: Infectious HIV-1 multiplication (plaque forming units). The class given is cell-based, human immunodeficiency virus type 1 (HIV-1). As to conditions: for infectious virus production: in words; for activity at 0.2 µM / activity at 0.4 µM / activity at 2 µM: read-out: Plaque Forming Units, % of Control. As for the experimental part: as §5

Data set [3] deals with HL60 human leukemia cell line. In words: HL60 cell growth inhibition (trypan blue, 48 h). As to conditions: for IC50: HL60, 48 hours. It counts as cell-based. As for the experimental part:
A number of the compounds disclosed herein have been tested against the HL60 human leukemia cell line to assess their cytotoxic potential. These analogs were investigated in parallel with ET-18-OMe which was used as the reference compound. The methodologies used in this investigation were the same as described in A. Noseda, M. Berens, C. Piantadosi, and E. J. Modest, Lipids 22, 878-883, 1987. In brief, HL60 cells at a concentration of […] were incubated in wells with one milliliter medium with the experimental drug in parallel with the same concentration of cells with ET-18-OMe (standard) or EtOH (control). After 48 hours of incubation the cells were counted using the trypan blue dye exclusion technique to determine the effect of the drug on cell growth. The experimental drug and ET-18-OMe were tested at the same concentrations, e.g., 10, 5, 2.5 and 1.25 μM.

The test system of data set [4] is HIV-1. In words: HIV-1 plaque assay, inhibitor added 60 minutes after infection. It counts as cell-based, human immunodeficiency virus type 1 (HIV-1).
Source text: as §2, §3, §4, §1
^1 Serial 2fold dilutions of compounds are used. HIV1 plaque formatio
is measured in CEMSS cell monolayers by having compound present starting
sixty minutes after virus infection. IC50 values for HIV1 plaque
formation are x ± one SD., N = 4. CEMSS cell growth is measured in […]

A further data set deals with KB cells. In words: Cytostatic activity on KB cells. As to conditions: Homo sapiens; KB cells, after controls doubled three times; read-out: IC50 KB. It counts as cell-based. As for the experimental part: (§6) All cells were grown in Eagle's minimum essential medium supplemented with 10% fetal bovine serum with the exception of HL-60 and K562-4 cells which were grown in RPMI 1640 medium supplemented with 10% fetal bovine serum. The KB and MH1 C1 cells, from a human nasopharyngeal carcinoma and rat hepatoma, respectively, were from American Type Culture Collection. The ChaGo cells, a human lung carcinoma, was generously provided by Dr. A. H. Tashjian. The human promyeloblastic leukemia cells, K562-4 were kindly supplied by Dr. Bismarck Lozzio. HL-60 cells, a human promyelocytic leukemia, and P388 cells, a mouse leukemia, were obtained from Dr. Y.-C. Cheng. The 77 cells were put into culture by us by excising the 7777, Morris hepatoma from a rat graciously supplied by the late Dr. H. P. Morris.
(§7) Cells were transferred or removed from monolayers for counting after a one or two minute incubation with 0.02% sodium ethylenediamine tetraacetate in phosphate-buffered saline to dislodge the cells. Flasks were seeded at a density of 1×10^3 cells per cm^2 or 2×10^4 per milliliter for suspension cultures. The HL-60 and K562-4 suspension cultures were used about 24 hours after seeding. The compounds to be tested were diluted to various concentrations and added to the monolayer cultures. All of the test compounds were dissolved in 10% dimethyl sulfoxide (DMSO) at concentrations that would give a final DMSO concentration of 0.1%. Control flasks contained 0.1% DMSO. Control cell replication was followed until approximately three doublings had occurred, and then all of the treated cells were counted.
(§8) The KB cells represented cells with low alkyl cleavage activity (less than the detectable level of 0.1-0.2 units per milligram protein by our assay procedure) and the 77 cells represented cells similar to normal cells with relatively high alkyl cleavage activity (1.6 units per milligram of protein). Our value for the cleavage activity of cultured 77 cells agrees well with the value of 1.4 units per milligram of protein reported by Soodsma et al, Cancer Res. 30, 309 (1970), for freshly excised 7777 Morris hepatoma tissue. In further confirmation of our assay procedure, we obtained a value of 12.6±4.1 units per milligram of protein in excised rat liver compared to 7.3 units per milligram of protein in rat liver measured by Soodsma et al.

The subject of a further data set is K562-4 cells. In words: Cytostatic activity on K562-4 cells. It counts as cell-based. To be noted: Homo sapiens; K562-4 (printed X562-4). As for the experimental part:
as §6, §7

The next data set deals with 77 cells. In words: Cytostatic activity on 77 cells. It counts as cell-based, rat. To be noted: for IC50: 77 cells, after controls doubled three times; for 77/KB: ratio of IC50 values ± standard error of the quotient. As for the experimental part: as §6, §7, §8
In another data set the test system is ChaGo cells. The experiment in a line: Cytostatic activity on ChaGo cells. It counts as cell-based, human. As for the experimental part: as §6, §7
In another data set the test system is MH1 C1 cells. In words: Cytostatic activity on MH1 C1 cells. The class given is cell-based, rat. The procedure: as §6, §7
The mark [5] stands for this setting: Human immunodeficiency virus 1, 192 h, day 8.
[6] abbreviates: Human immunodeficiency virus 1, 240 h, day 10.
Where [7] appears, read: Human immunodeficiency virus 1, 312 h, day 13.

Values joined by “and” are separate entries in the source; they are usually repeats but may differ in a detail not shown here. Identical values can stand only once. Like-named read-outs stand apart in the source and are kept apart here.

For `CCCCCCCCCCCCCCCCCCOCC(COP(=O)([O-])OCC[N+](C)(C)C)OC` (racemic) [ET-18-OMe, (±)-1-O-octadecyl-2-O-methylglycero-3-phosphocholine, reference compound], the IC50 was 4400 nM in the data set with CEM-SS cells; 1900 nM and 2300 nM and 2200 nM in [3] (ET-18-OMe reference run in parallel with the analog of the line, 2880 min, read-out: ID50, ET-18-OMe); 1700 nM in [3] (Homo sapiens, HL-60, 48 h, ET-18-OMe reference run in parallel with the analog of the line, read-out: ID50, ET-18-OMe); 2500 nM in data set [3] (Homo sapiens, HL-60, 48 h, read-out: ID50 (the source's name)); 1400 ± 450 nM with HIV-1 [4] (Human immunodeficiency virus 1, CEM-SS monolayers, compound from sixty minutes after infection, N = 4, read-out: Inhibitory Concentration50 HIV-1 Plaque Formation). Besides, the inhibition at 0.2 µM was 0% in the data set with HIV-1 [1] (Human immunodeficiency virus 1, 0.2 μM, 30 minutes before infection, Table 6) and 0% in the data set with HIV-1 [4] (Human immunodeficiency virus 1, 1 h, 0.2 μM, 60 minutes after infection). Further, the inhibition at 0.4 µM in the data set with HIV-1 [1] (Human immunodeficiency virus 1, 0.4 μM, 30 minutes before infection, Table 6, read-out: Inhibition (%)) is 9%; in the data set with HIV-1 [4] (Human immunodeficiency virus 1, 1 h, 0.4 μM, 60 minutes after infection), 0%. The inhibition at 2 µM in the data set with HIV-1 [1] (Human immunodeficiency virus 1, 2.0 μM, 30 minutes before infection, Table 6) is 45%; in the data set with HIV-1 [4] (Human immunodeficiency virus 1, 1 h), 64%. The “antiviral activity (HIV-1 plaque formation)” value in the data set with HIV-1 [1] (added before or after infection, in words) is on record as “antiviral activity”. Moreover, the reverse transcriptase activity result in the data set on reverse transcriptase (13 days) was “reverse transcriptase activity increases”; with reverse transcriptase (between 8 and 10 days) it was “markedly inhibit infectious virus production and reverse transcriptase activity in a dose-dependent manner”. Further, the activity at 0.2 µM was 54% in the data set on reverse transcriptase (192 h, day 8); 192% in the data set on reverse transcriptase (240 h, day 10); 94% in the data set with reverse transcriptase (312 h, day 13); 395% in the data set on HIV-1 [2] (setting [5]); 287% in the data set on HIV-1 [2] (setting [6]); 89% in the data set with HIV-1 [2] (setting [7]). Besides, the activity at 0.4 µM with reverse transcriptase (192 h, day 8) was 15%; with reverse transcriptase (240 h, day 10), 90%; with reverse transcriptase (312 h, day 13), 161%; in the data set on HIV-1 [2] (setting [5]), 25%; in the data set with HIV-1 [2] (setting [6]), 30%; in the data set on HIV-1 [2] (setting [7]) it was 35%. The activity at 2 µM in the data set on reverse transcriptase (192 h, day 8) was found to be 6%; in the data set on reverse transcriptase (240 h, day 10) it was 6%; in the data set with reverse transcriptase (312 h, day 13), 174%; in the data set on HIV-1 [2] (setting [5]) it was 0%; in the data set with HIV-1 [2] (setting [6]), 33%; in the data set on HIV-1 [2] (setting [7]) it was 30%. The infectious virus production result in the data set with HIV-1 [2] (13 days) is reported as “infectious virus production is still inhibited”; with HIV-1 [2] (between 8 and 10 days), “markedly inhibit infectious virus production”. Besides, the “cytotoxic activity against HL60” value in [3] (HL60, in words) is “shows an activity that is consistent with previous reports against the cell line tested”. In addition, the anti-HIV-1 activity entry in the data set on HIV-1 [4] (HIV-1 plaque formation, in words) is given as “potent anti-HIV activity”.

As to `CCCCCCCCCCCCCCCCCCOCC(O)C[N+](C)(C)CCO.[I-]` (racemic) [X, (±)-3-octadecyloxy-2-hydroxy-N,N-dimethyl-N-β-hydroxyethyl-1-propyl ammonium iodide], the IC50 in the data set on KB cells amounted to 350 ± 50 nM; with K562-4 cells, 2500 nM; with 77 cells, 1330 ± 400 nM; in the data set with ChaGo cells, 2800 nM; in the data set on ChaGo cells (Homo sapiens) it was 1700 nM. Besides, in the data set with 77 cells, the 77/KB worked out at 2.9 ± 0.96.

In the case of `CCCCCCCCCCCCCCCCCCOCCC[N+](C)(C)CCO.[I-]` [XIII, 3-octadecyloxy-N,N-dimethyl-N-β-hydroxyethyl-1-propyl ammonium iodide], the IC50 with KB cells was determined as 700 ± 80 nM; with K562-4 cells it was 1400 nM; in the data set with MH1 C1 cells (Rattus norvegicus, MH1C1, MH1 C1), 2900 nM; in the data set on 77 cells it was 2500 ± 900 nM. Moreover, the “sensitivity of MH1 C1 cells relative to 77 cells” value with MH1 C1 cells (MH1 C1 vs 77 cells) was “two to three times less sensitive to growth inhibition than 77 cells”. The 77/KB in the data set with 77 cells was 4.3 ± 1.60.

What is called inhibition is how much of the control response was suppressed.

For the origin of these results see patent US5614548A, “Quaternary amine containing ether or ester lipid derivatives and therapeutic compositions” (priority 1994, dated 1997).
